Assays:
Type in all cases: physicochemical
[1] = Partition coefficient of t-rotamer in octanol water system
[2] = Partition coefficient of h-rotamer in octanol water system
[3] = Partition coefficient (logP); conditions: octanol/water
[4] = Partition coefficient of g-rotamer in octanol water system

In the case of `CC(C)(C)NCC(O)c1cc(Cl)c(N)c(Cl)c1` (centres undefined) [CLENBUTEROL], the logP [1] is reported as 2.87, the logP [2] is reported as 2.57 and the logP [3] is reported as 2.71. It also gave a logP [4] of 2.14.

— ChEMBL document CHEMBL1144929, “Determination of conformer-specific partition coefficients in octanol/water systems” (J Med Chem, 2003)
